15 compounds from US11912699B2, “Tau-protein targeting compounds and associated” (Arvinas Operations, Inc., priority 2019, dated 2024) can be followed below.

For the experiment, the target named is T1, Tau P301L (Homo sapiens, UniProt P10636, P618L).
T1 construct: expressed in transfected cells
The experiment in a line: In vitro tau degradation assay in CHOK1 Tau P301L cells (sarkosyl insoluble tau, WES). Format: cell-based. To be noted: remaining tau protein in sarkosyl insoluble pellet, CHOK1 Tau P301L cells treated 48 hours with test compound at 1 μM, doxycycline removed for the last 24 hours, relative to DMSO doxycycline control; for remaining activity at 1 µM: CHO-K1, read-out: Tau Protein Degradation effect at 1 μM. Here is the method: Exemplary bifunctional molecules of the present disclosure are represented by the structures in Table 1, which includes associated data. In vitro tau protein degradation data in CHOK1 Tau P301L cells, as described below, is reported based on the remaining tau protein in the sarkosyl insoluble pellet following treatment of cells for 48 hours with test compound at the 1 μM concentration where the last 24 hours doxycycline was removed. The data are represented relative to DMSO doxycycline control: • A ≤50% of tau protein remaining (>50% of tau protein degraded) • B >50% of tau protein remaining ([…] of tau protein degraded)
Data for compounds in Table 1 was generated using in vitro tau Degradation Assay protocol as described in Methods for FIGS. 2A and 2B below.
FIGS. 2A and 2B. (2A) Tau expression was induced by addition (+) of doxycycline (1 μg/ml) to ChoK1-Tau P301L clone D1.
In vitro tau Degradation Assay for FIGS. 2A and 2B. T-Rex CHOK1 cells are maintained in Ham's F-12 Nutrient Mix (ThermoFisher) plus 10% Fetal Bovine Serum Tetracycline Negative (Corning) with 10 ug/mL Blasticidin S HCl (Gibco) and 200 ug/mL Zeocin (100 mg/mL, Invitrogen). A stable clone expressing Tau P301L in the presence of doxycycline (1 μg/ml), clone D1 was selected. Compounds were diluted to indicated concentrations and used to treat cells for the indicated times. Cells were harvested from either 96, 24, 6, or 10 cm dishes coated with Poly-D-Lysine (Corning) in ice cold PBS or Buffer H+HALT Protease and phosphatase inhibitors (Thermofisher). Sarkosyl Insoluble tau was isolated as described in Eckermann et al. and Greenberg and Davies, accordingly. WES™ capillary electrophoresis analysis was performed on the Sarkosyl Insoluble tau fraction using Tau1 antibody (Milipore) unless otherwise indicated, as specified in the manufacturers specification (ProteinSimple).

Each structure is given as a SMILES string.

T1 sequence (P10636 1-441 isoform P10636-8 P301L): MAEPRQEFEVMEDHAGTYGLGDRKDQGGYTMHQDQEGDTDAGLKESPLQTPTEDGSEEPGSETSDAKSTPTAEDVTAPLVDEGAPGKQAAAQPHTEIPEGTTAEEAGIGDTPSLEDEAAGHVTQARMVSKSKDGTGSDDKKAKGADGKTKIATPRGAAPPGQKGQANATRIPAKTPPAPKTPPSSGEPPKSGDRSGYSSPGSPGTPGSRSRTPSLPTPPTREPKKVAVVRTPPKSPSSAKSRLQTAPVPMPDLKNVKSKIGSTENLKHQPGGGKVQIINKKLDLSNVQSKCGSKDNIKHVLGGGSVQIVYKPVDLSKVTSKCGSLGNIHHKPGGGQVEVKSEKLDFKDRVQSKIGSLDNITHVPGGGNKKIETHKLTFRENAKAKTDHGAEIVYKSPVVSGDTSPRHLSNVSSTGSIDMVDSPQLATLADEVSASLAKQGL

Take `Nc1cccc2cnc(-n3ccc4cc(OCCOCCOCCOCCOc5ccc6c(c5)C(=O)N(C5CCC(=O)NC5=O)C6=O)ncc43)cc12` (stereo not drawn) [Compound 353, 5-(2-(2-(2-(2-((1-(5-aminoisoquinolin-3-yl)-1H-pyrrolo[2,3-c]pyridin-5-yl)oxy)ethoxy)ethoxy)ethoxy)ethoxy)-2-(2,6-dioxopipieridin-3-yl)isoindoline-1,3-dione]: the remaining activity at 1 µM was less than 50%.

On to `Cc1cnc(Nc2ccc3cnccc3c2)cc1OCCOCCOCCOCCOc1ccc2c(c1)C(=O)N(C1CCC(=O)NC1=O)C2=O` (stereo not drawn) [Compound 369, 2-(2,6-dioxopiperidin-3-yl)-5-(2-(2-(2-(2-((2-(isoquinolin-6-ylamino)-5-methylpyridin-4-yl)oxy)ethoxy)ethoxy)ethoxy)ethoxy) isoindoline-1,3-dione], for which the remaining activity at 1 µM is less than 50%. With `Cc1ncsc1-c1ccc([C@H](C)NC(=O)[C@@H]2C[C@@H](O)CN2C(=O)[C@@H](c2cc(OCCN3CCN(CCN4CCC(O[C@H]5C[C@H](Oc6ccc(-c7ccc8c9cnccc9n(C)c8c7)cn6)C5)CC4)CC3)no2)C(C)C)cc1` [Compound 372, (2S,4R)-4-hydroxy-1-((R)-3-methyl-2-(3-(2-(4-(2-(4-((1r,3r)-3-((5-(5-methyl-5H-pyrido[4,3-b]indol-7-yl)pyridin-2-yl)oxy)cyclobutoxy)piperidin-1-yl)ethyl)piperazin-1-yl)ethoxy)isoxazol-5-yl)butanoyl)-N-((S)-1-(4-(4-methylthiazol-5-yl)phenyl)ethyl) pyrrolidine-2-carboxamide], the remaining activity at 1 µM was more than 50%. For the compound `Cc1ncsc1-c1ccc([C@H](C)NC(=O)[C@@H]2C[C@@H](O)CN2C(=O)[C@@H](NC(=O)COCCOCCOCCOCCOc2ccc3cc(-n4ccc5ccncc54)ncc3c2)C(C)(C)C)cc1` [Compound 375, (2S,4R)-1-((S)-17-((3-(1H-pyrrolo[2,3-c]pyridin-1-yl)isoquinolin-7-yl)oxy)-2-(tert-butyl)-4-oxo-6,9,12,15-tetraoxa-3-azaheptadecanoyl)-4-hydroxy-N-((S)-1-(4-(4-methylthiazol-5-yl)phenyl)ethyl) pyrrolidine-2-carboxamide], the remaining activity at 1 µM is more than 50%.

On to `O=C1CCC(N2C(=O)c3ccc(N4CCN(CCCC5CCN(CC6CC(Oc7ccc(-c8ccc9c(c8)[nH]c8ccncc89)cn7)C6)CC5)CC4)cc3C2=O)C(=O)N1` (stereo not drawn) [Compound 376, 5-(4-(3-(1-(((1r,3r)-3-((5-(5H-pyrido[4,3-b]indol-7-yl)pyridin-2-yl)oxy)cyclobutyl)methyl)piperidin-4-yl)propyl)piperazin-1-yl)-2-(2,6-dioxopiperidin-3-yl)isoindoline-1,3-dione], for which the “Tau Protein Degradation effect at 1 μM” value is “B (>50% of tau protein remaining (≥50% of tau protein degraded))”. In the case of `Cc1ncsc1-c1ccc([C@H](C)NC(=O)[C@@H]2C[C@@H](O)CN2C(=O)[C@@H](NC(=O)COCCCCCN2CCC(OC3CC(Oc4ccc(-c5ccc6c7cnccc7n(C)c6c5)cn4)C3)CC2)C(C)(C)C)cc1` (stereo partly drawn) [Compound 377, (2S,4R)-1-((S)-3,3-dimethyl-2-(2-((5-(4-((1r,3r)-3-((5-(5-methyl-5H-pyrido[4,3-b]indol-7-yl)pyridin-2-yl)oxy)cyclobutoxy)piperidin-1-yl)pentyl)oxy)acetamido)butanoyl)-4-hydroxy-N-((S)-1-(4-(4-methythiazol-5-yl)phenyl)ethyl) pyrrolidine-2-carboxamide], the remaining activity at 1 µM is more than 50%. Regarding `Cc1ncsc1-c1ccc([C@H](C)NC(=O)[C@@H]2C[C@@H](O)CN2C(=O)[C@H](c2cc(OCCCCCN3CCC(O[C@H]4C[C@H](Oc5ccc(-c6ccc7c8cnccc8n(C)c7c6)cn5)C4)CC3)no2)C(C)C)cc1` [Compound 378, (2S,4R)-4-hydroxy-1-((S)-3-methyl-2-(3-((5-(4-((1r,3r)-3-((5-(5-methyl-5H-pyrido[4,3-b]indol-7-yl)pyridin-2-yl)oxy)cyclobutoxy)piperidin-1-yl)pentyl)oxy)isoxazol-5-yl)butanoyl)-N-((S)-1-(4-(4-methylthiazol-5-yl)phenyl)ethyl) pyrrolidine-2-carboxamide], the remaining activity at 1 µM is more than 50%. As for `Cc1ncsc1-c1ccc([C@H](C)NC(=O)[C@@H]2C[C@@H](O)CN2C(=O)[C@@H](c2cc(OCCCCCN3CCC(O[C@H]4C[C@H](Oc5ccc(-c6ccc7c8cnccc8n(C)c7c6)cn5)C4)CC3)no2)C(C)C)cc1` [Compound 379, (2S,4R)-4-hydroxy-1-((R)-3-methyl-2-(3-((5-(4-((1r,3r)-3-((5-(5-methyl-5H-pyrido[4,3-b]indol-7-yl)pyridin-2-yl)oxy)cyclobutoxy)piperidin-1-yl)pentyl)oxy)isoxazol-5-yl)butanoyl)-N-((S)-1-(4-(4-methylthiazol-5-yl)phenyl)ethyl) pyrrolidine-2-carboxamide], the remaining activity at 1 µM is more than 50%. On to `O=C1CCC(N2C(=O)c3ccc(OCCOCCOCCOCCOc4ccc5cc(-n6ccc7ccncc76)ncc5c4)cc3C2=O)C(=O)N1` (stereo not drawn) [Compound 384, 5-(2-(2-(2-(2-((3-(1H-pyrrolo[2,3-c]pyridin-1-yl)isoquinolin-7-yl)oxy)ethoxy)ethoxy)ethoxy)ethoxy)-2-(2,6-dioxopiperidin-3-yl)isoindoline-1,3-dione], for which the remaining activity at 1 µM was more than 50%. For the compound `Cn1c2ccncc2c2ccc(-c3ccc(O[C@H]4C[C@H](OC5CCN(CCCOc6ccc7c(c6)C(=O)N(C6CCC(=O)NC6=O)C7=O)CC5)C4)nc3)cc21` (stereo partly drawn) [Compound 385, 2-(2,6-dioxopiperidin-3-yl)-5-(3-(4-((1r,3r)-3-((5-(5-methyl-5H-pyrido[4,3-b]indol-7-yl)pyridin-2-yl)oxy)cyclobutoxy)piperidin-1-yl)propoxy)isoindoline-1,3-dione], the remaining activity at 1 µM is more than 50%.

Take `Cn1c2ccncc2c2ccc(-c3ccc(O[C@H]4C[C@H](CN5CC6(CN(CCOc7ccc8c(c7)C(=O)N(C7CCC(=O)NC7=O)C8=O)C6)C5)C4)nc3)cc21` (stereo partly drawn) [Compound 386, 2-(2,6-dioxo-3-piperidyl)-5-[2-[2-[[3-[[5-(5-methylpyrido[4,3-b]indol-7-yl)-2-pyridyl]oxy]cyclobutyl]methyl]-2,6-diazaspiro[3.3]heptan-6-yl]ethoxy]isoindoline-1,3-dione diformate]: the remaining activity at 1 µM was less than 50%.

For `Cn1c2ccncc2c2ccc(-c3ccc(O[C@H]4C[C@H](CN5CCN(CCCCCOc6ccc7c(c6)C(=O)N(C6CCC(=O)NC6=O)C7=O)CC5)C4)nc3)cc21` (stereo partly drawn) [Compound 387, 2-(2,6-dioxopiperidin-3-yl)-5-((5-(4-(((1r,3r)-3-((5-(5-methyl-5H-pyrido[4,3-b]indol-7-yl)pyridin-2-yl)oxy)cyclobutyl)methyl)piperazin-1-yl)pentyl)oxy) isoindoline-1,3-dione], the remaining activity at 1 µM is less than 50%. For the compound `Cn1c2ccncc2c2ccc(-c3ccc(O[C@H]4C[C@H](OC5CCN(CCCN6CC(Oc7ccc8c(c7)C(=O)N(C7CCC(=O)NC7=O)C8=O)C6)CC5)C4)nc3)cc21` (stereo partly drawn) [Compound 388, 2-(2,6-dioxopiperidin-3-yl)-5-((1-(3-(4-((1r,3r)-3-((5-(5-methyl-5H-pyrido[4,3-b]indol-7-yl)pyridin-2-yl)oxy)cyclobutoxy)piperidin-1-yl)propyl)azetidin-3-yl)oxy) isoindoline-1,3-dione], the remaining activity at 1 µM is less than 50%. Consider `Cc1ncsc1-c1ccc([C@H](C)NC(=O)[C@@H]2C[C@@H](O)CN2C(=O)[C@@H](NC(=O)CN2CCN(CCN3CCC(O[C@H]4C[C@H](Oc5ccc(-c6ccc7c8cnccc8n(C)c7c6)cn5)C4)CC3)CC2)C(C)(C)C)cc1` [Compound 389, (2S,4R)-1-((S)-3,3-dimethyl-2-(2-(4-(2-(4-((1r,3r)-3-((5-(5-methyl-5H-pyrido[4,3-b]indol-7-yl)pyridin-2-yl)oxy)cyclobutoxy)piperidin-1-yl)ethyl)piperazin-1-yl)acetamido)butanoyl)-4-hydroxy-N-((S)-1-(4-(4-methylthiazol-5-yl)phenyl)ethyl) pyrrolidine-2-carboxamide], for which the remaining activity at 1 µM is less than 50%.

Consider `Cn1c2ccncc2c2ccc(-c3ccc(N4CCC(CN5CCN(c6ccc7c(c6)C(=O)N(C6CCC(=O)NC6=O)C7=O)CC5)CC4)nc3)cc21` (stereo not drawn) [Compound 390, 2-(2,6-dioxopiperidin-3-yl)-5-(4-[[1-(5-[5-methyl-5H-pyrido[4,3-b]indol-7-yl]pyridin-2-yl)piperidin-4-yl]methyl]piperazin-1-yl)-2,3-dihydro-1H-isoindole-1,3-dione], for which the remaining activity at 1 µM was more than 50%.
